Among the data in ChEMBL document CHEMBL1153825, “From a natural product lead to the identification of potent and selective benzofuran-3-yl-(indol-3-yl)maleimides as glycogen synthase kinase 3beta inhibitors that suppress proliferation and survival of pancreatic cancer cells” (J Med Chem, 2009) are IC50 values, retold here.

The subject of one test is MIA PaCa-2. Nature of the test: Growth inhibition of human MIAPaCa2 cells after 72 hrs by MTS assay. The conditions noted are these: MIA PaCa-2, 72 h. The class given is functional, cell-based. Background: Tetrazolium assays rely on reduction of a dye to a coloured formazan, in cell work by metabolically active cells.
The subject of a further test is HuP-T3. Briefly: Growth inhibition of human HUPT3 cells after 72 hrs by MTS assay. It counts as functional, cell-based. The conditions noted are these: HuP-T3, 72 h.
The subject of another test is BXPC-3. Nature of the test: Growth inhibition of human BxPC3 cells after 72 hrs by MTS assay. The class given is functional, cell-based. The settings on record: BXPC-3, 72 h.
In test [1] the target is Glycogen synthase kinase-3 beta (Homo sapiens, UniProt P49841). Nature of the test: Inhibition of human GSK3-beta by scintillation counting.
Glycogen synthase kinase-3 beta, sequence (P49841 whole entry): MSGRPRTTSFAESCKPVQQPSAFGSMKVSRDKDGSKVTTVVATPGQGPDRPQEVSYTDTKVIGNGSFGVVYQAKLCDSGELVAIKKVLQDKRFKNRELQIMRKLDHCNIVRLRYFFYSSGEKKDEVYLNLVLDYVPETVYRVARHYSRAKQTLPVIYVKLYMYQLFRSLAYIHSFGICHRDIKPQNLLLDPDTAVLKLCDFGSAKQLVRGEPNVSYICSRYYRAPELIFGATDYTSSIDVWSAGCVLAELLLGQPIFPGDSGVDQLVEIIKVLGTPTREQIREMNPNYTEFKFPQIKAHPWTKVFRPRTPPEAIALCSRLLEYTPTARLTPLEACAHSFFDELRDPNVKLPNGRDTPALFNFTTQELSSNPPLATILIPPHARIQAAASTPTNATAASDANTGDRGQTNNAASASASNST
Test [2] deals with T1, Cyclin-dependent kinase 2 (Homo sapiens, UniProt P24941).
Test [3] concerns the target T2, Inhibitor of nuclear factor kappa-B kinase subunit beta (Homo sapiens, UniProt O14920).
T2 sequence (O14920 whole entry): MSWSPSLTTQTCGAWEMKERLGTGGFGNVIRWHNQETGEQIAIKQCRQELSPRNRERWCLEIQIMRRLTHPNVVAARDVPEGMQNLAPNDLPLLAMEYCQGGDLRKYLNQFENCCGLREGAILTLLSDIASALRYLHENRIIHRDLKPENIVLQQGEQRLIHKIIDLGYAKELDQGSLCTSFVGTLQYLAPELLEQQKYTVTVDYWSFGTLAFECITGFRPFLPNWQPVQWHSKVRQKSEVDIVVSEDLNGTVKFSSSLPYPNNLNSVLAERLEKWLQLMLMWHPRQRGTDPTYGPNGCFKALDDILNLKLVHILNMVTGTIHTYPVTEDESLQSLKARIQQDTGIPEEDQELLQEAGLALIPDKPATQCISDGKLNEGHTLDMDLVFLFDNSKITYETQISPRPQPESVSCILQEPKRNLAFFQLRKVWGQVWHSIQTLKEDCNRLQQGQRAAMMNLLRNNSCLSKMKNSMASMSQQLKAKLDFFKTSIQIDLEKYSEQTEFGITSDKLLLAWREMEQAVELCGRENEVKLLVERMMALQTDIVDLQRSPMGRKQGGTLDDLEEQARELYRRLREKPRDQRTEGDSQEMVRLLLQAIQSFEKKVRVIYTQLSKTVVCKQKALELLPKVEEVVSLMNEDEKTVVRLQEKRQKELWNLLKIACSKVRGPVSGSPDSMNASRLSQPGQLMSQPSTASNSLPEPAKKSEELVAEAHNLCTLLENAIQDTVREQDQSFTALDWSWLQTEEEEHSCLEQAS
Nature of the test: Inhibition of IKK-beta up to 50 uM.

The target in test [4] is RAF proto-oncogene serine/threonine-protein kinase (Homo sapiens, UniProt P04049). Nature of the test: Inhibition of cRAF up to 50 uM.
RAF proto-oncogene serine/threonine-protein kinase, sequence (P04049 whole entry): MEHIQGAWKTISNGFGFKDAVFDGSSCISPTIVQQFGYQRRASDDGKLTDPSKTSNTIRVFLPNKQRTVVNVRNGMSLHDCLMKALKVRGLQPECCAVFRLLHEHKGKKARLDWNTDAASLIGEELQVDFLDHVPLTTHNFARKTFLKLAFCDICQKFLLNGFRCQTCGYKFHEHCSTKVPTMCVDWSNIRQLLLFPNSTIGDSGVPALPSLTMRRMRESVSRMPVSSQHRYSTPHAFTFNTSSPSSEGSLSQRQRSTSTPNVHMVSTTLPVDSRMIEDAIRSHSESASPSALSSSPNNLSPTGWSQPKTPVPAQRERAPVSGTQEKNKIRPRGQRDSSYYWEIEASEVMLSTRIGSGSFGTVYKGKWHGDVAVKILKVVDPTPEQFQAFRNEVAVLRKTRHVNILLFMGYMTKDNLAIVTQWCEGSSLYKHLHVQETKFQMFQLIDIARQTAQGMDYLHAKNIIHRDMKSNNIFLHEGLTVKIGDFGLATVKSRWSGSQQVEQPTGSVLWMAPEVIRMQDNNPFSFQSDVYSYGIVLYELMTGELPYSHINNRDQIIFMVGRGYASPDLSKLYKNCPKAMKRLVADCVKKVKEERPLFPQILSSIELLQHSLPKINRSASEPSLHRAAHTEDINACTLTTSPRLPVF
Test [5] addresses T3, Serine/threonine-protein kinase Chk1 (Homo sapiens, UniProt O14757).
T3 sequence (O14757 whole entry): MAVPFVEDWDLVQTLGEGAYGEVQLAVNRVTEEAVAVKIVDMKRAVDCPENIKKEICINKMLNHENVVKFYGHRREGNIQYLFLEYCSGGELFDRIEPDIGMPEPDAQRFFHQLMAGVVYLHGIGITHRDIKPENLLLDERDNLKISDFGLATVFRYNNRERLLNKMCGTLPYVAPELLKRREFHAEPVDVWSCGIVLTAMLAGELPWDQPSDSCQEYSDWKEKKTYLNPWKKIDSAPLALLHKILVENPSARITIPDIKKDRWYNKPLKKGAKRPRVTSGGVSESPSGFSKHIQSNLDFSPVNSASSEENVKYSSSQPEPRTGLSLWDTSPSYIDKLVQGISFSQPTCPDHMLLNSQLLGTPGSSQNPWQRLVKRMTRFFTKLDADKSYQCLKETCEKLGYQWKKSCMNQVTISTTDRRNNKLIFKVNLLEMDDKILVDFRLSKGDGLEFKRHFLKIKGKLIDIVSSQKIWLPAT
Briefly: Inhibition of CHK1.

Test [6] deals with T4, Inhibitor of nuclear factor kappa-B kinase subunit alpha (Homo sapiens, UniProt O15111).
T4 sequence (O15111 whole entry): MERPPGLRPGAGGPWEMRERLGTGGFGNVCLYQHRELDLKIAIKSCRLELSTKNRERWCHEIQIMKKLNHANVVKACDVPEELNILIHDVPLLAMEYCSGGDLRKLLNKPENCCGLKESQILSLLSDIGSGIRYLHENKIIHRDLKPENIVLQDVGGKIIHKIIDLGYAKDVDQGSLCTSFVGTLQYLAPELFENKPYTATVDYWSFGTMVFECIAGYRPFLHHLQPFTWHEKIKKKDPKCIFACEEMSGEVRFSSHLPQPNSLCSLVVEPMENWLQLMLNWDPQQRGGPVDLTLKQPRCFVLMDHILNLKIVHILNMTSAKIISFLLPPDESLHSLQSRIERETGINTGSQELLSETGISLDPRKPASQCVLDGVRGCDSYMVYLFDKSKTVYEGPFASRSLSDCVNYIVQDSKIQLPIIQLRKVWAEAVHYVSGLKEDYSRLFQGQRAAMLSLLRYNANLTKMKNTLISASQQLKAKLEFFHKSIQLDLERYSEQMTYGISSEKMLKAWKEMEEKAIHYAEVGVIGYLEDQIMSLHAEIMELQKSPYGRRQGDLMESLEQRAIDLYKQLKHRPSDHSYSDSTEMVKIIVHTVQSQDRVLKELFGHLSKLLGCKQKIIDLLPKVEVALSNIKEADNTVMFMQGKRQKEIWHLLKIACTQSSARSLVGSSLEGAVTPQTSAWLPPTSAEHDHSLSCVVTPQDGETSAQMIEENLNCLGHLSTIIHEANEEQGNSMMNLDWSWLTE

In test [7] the target is Mitogen-activated protein kinase 3 (Homo sapiens, UniProt P27361). Nature of the test: Inhibition of ERK1 up to 50 uM.
Mitogen-activated protein kinase 3, sequence (P27361 whole entry): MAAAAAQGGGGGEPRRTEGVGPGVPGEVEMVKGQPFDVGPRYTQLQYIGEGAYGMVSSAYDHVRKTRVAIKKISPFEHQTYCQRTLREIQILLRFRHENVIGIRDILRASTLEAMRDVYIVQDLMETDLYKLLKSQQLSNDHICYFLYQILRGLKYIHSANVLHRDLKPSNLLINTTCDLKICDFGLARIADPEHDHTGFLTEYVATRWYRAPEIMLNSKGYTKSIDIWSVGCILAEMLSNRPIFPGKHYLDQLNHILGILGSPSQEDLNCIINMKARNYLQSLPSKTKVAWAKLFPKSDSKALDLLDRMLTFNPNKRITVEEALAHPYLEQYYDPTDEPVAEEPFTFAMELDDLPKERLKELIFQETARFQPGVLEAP
Test [8] deals with T1, Cyclin-dependent kinase 2. This is another data set of the same source.
In test [9] the target is RAC-gamma serine/threonine-protein kinase (Homo sapiens, UniProt Q9Y243). Nature of the test: Inhibition of AKT3 up to 50 uM.
RAC-gamma serine/threonine-protein kinase, sequence (Q9Y243 whole entry): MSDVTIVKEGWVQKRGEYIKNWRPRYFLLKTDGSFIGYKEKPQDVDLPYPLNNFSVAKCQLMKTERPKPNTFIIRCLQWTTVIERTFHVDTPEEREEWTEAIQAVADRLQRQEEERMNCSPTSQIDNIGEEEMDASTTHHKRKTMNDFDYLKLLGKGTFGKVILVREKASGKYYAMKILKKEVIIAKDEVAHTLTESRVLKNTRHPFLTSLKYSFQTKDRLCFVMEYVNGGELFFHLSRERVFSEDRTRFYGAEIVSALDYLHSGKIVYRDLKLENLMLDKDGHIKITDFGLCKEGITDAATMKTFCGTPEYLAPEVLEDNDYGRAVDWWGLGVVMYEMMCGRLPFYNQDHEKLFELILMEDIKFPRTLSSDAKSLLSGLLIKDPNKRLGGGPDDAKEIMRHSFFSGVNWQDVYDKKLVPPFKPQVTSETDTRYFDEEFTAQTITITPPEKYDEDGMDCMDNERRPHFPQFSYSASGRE
Test [10] has as its target Cyclin-dependent kinase 1/cyclin B1 (Homo sapiens, UniProt P06493). Nature of the test: Inhibition of CDK1/Cyclin B. The class given is protein-complex assay.

Cyclin-dependent kinase 1/cyclin B1, sequence (P06493 whole entry): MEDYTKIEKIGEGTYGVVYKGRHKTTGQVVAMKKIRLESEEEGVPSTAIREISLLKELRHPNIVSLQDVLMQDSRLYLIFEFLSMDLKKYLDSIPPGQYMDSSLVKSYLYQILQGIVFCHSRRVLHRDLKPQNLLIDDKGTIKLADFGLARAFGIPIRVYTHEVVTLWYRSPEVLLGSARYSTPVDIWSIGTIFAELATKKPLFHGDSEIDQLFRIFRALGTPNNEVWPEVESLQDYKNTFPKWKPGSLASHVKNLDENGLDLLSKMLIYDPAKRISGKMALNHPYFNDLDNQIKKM
Cyclin-dependent kinase 1/cyclin B1, sequence (P14635 whole entry, further chain): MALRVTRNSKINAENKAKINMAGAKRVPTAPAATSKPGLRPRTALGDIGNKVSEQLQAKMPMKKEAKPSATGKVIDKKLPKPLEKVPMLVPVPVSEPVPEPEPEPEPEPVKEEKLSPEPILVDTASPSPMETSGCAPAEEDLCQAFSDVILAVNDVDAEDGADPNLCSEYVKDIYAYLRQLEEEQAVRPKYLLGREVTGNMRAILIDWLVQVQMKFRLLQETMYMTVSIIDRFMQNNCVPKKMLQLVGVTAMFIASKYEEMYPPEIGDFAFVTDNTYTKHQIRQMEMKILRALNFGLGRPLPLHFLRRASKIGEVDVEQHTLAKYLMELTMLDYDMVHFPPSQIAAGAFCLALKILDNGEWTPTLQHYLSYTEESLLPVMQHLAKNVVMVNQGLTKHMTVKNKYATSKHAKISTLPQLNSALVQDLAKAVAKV

Take `COc1ccc(CNC(=O)Nc2ncc([N+](=O)[O-])s2)cc1`: the results for the 50% inhibitory concentration (IC50) in the test with MIA PaCa-2, in the test on HuP-T3 and in the test with BXPC-3 were 29 µM, 22 µM and 14 µM, respectively.

With `COc1cccc2c(C3=C(c4cn(C)c5cc(C(F)(F)F)ccc45)C(=O)NC3=O)coc12`, the IC50 came out at 8 µM in the test with MIA PaCa-2, 6 µM in the test with HuP-T3 and 6 µM with BXPC-3.

As to `COc1cc2c(C3=C(c4coc5ccccc45)C(=O)NC3=O)cn(C)c2cc1Cl`, the IC50 with MIA PaCa-2, in the test on HuP-T3 and with BXPC-3 was more than 50 µM in each case.

Consider `Cn1cc(C2=C(c3coc4ccc(F)cc34)C(=O)NC2=O)c2cc(C#CC3CC3)ccc21`, for which the IC50 in the test on MIA PaCa-2 is 34 µM; with HuP-T3 it was more than 50 µM; in the test on BXPC-3 it was more than 50 µM.

As for `Cn1cc(C2=C(c3coc4ccccc34)C(=O)NC2=O)c2cc(F)c(Cl)cc21`, the IC50 was determined as 3 µM in the test on MIA PaCa-2, 2 µM in the test on HuP-T3 and 2 µM in the test with BXPC-3.

As for `Cn1cc(C2=C(c3coc4cc(OCC5CCC5)ccc34)C(=O)NC2=O)c2cc(F)c(Cl)cc21`, in test [1], the IC50 is 4.09 µM.

As for `Cn1cc(C2=C(c3coc4ccccc34)C(=O)NC2=O)c2cc(Br)ccc21`, the half-inhibitory concentration (IC50) came out at 30 µM in the test with MIA PaCa-2 and 43 µM with HuP-T3.

Regarding `Cn1cc(C2=C(c3coc4cc(CO)ccc34)C(=O)NC2=O)c2cc(Br)ccc21`, the IC50 in [1] worked out at 0.00051 µM.

`Cn1cc(C2=C(c3coc4cc(OCC5CC5)ccc34)C(=O)NC2=O)c2cc(F)c(Cl)cc21` yielded a concentration for half-maximal inhibition (IC50) in test [1] of 1.29 µM.

Take `COCc1cccc2c(C3=C(c4coc5ccccc45)C(=O)NC3=O)cn(C)c12`: the half-inhibitory concentration (IC50) in the test with MIA PaCa-2 and in the test with BXPC-3 was more than 50 µM each time.

Consider `Cn1cc(C2=C(c3coc4cc(F)c(F)cc34)C(=O)NC2=O)c2ccc3ccccc3c21`, for which the IC50 worked out at 17 µM with MIA PaCa-2, 6 µM with HuP-T3 and 7 µM in the test with BXPC-3.

For the compound `COc1cccc2c(C3=C(c4cn(C)c5ccc(Br)cc45)C(=O)NC3=O)coc12`, the half-maximal inhibitory concentration (IC50) in test [1] was determined as 0.0075 µM; in test [2] it was 1.16 µM.

In the case of `COc1ccc2c(C3=C(c4cn(C)c5cc(Cl)c(F)cc45)C(=O)NC3=O)coc2c1`, the midpoint of inhibition in test [1], the IC50, lay at 0.87 µM.

On to `Cn1cc(C2=C(c3coc4ccccc34)C(=O)NC2=O)c2cc(I)ccc21`, for which the concentration for half-maximal inhibition (IC50) was 0.0345 µM in [1] and more than 50 µM with HuP-T3.

On to `Cn1cc(C2=C(c3coc4ccc(F)cc34)C(=O)NC2=O)c2cc(Cl)ccc21`, for which, in test [1], the IC50 came out at 0.042 µM.

For the compound `COc1cccc2c(C3=C(c4cn(C)c5cc(I)c(F)cc45)C(=O)NC3=O)coc12`, the 50% inhibitory concentration (IC50) result in test [3] was “Not Active”; in test [4] it was “Not Active”; in test [5], more than 50 µM; in test [6], more than 50 µM; in test [7], “Not Active”; in [8], more than 50 µM. The IC50 in [2] is more than 50 µM; in test [9] it was “Not Active”; in test [10], more than 50 µM.

The compound `Cn1cc(C2=C(c3ccc(Cl)cc3Cl)C(=O)NC2=O)c2ccccc21` [SB-216763] registered a concentration for half-maximal inhibition (IC50) with MIA PaCa-2 of 25 µM.

A word on the IC50: it is the concentration needed to halve the response being measured.
